PMC6737539 (Journal of medicinal chemistry, 2019)
Read-outs that look alike come from different tables or passages of the source.

How the values were obtained:
[1] = Liver microsomal metabolic stability, rat; format: in vitro ADME; settings: 10 μM, 30 min
[2] = test system: serum RBP4; settings: mice; cited from earlier work
[3] = Liver microsomal metabolic stability, human; format: in vitro ADME; settings: 10 μM, 30 min
[4] = molecular target: RBP4 (Homo sapiens, UniProt P02753); assay: RBP4 scintillation proximity assay; format: binding; settings: for binding to RBP4 (competition binding): purified human RBP4, 10 nM 3H-retinol radioligand
[5] = Liver microsomal metabolic stability, mouse; format: in vitro ADME; settings: 10 μM, 30 min
[6] = lipophilic ligand efficiency: RBP4 SPA pIC50 − cLog P

Row | SMILES | LLE [4, 6] | binding to RBP4 (competition binding) [4] | further results
1 | O=C(O)c1ccccc1NC(=O)N1CCC(c2ccccc2C(F)(F)F)CC1 [Compound 3, reference compound] |  |  | Microsomal Stability (% remaining) RLM [1]: 85 % remaining
2 | Cc1cc(C(=O)O)nc(N2C[C@H]3CC(c4ccccc4C(F)(F)F)C[C@H]3C2)n1 (stereo partly shown) [Compound 5] |  |  | serum RBP4 lowering [2]: 90%
3 | Cn1nc(C(=O)N2CCC(c3ccccc3C(F)(F)F)CC2)c2ccccc21 [Compound 12, (1-Methyl-1H-indazol-3-yl)(4-(2-(trifluoromethyl)phenyl)-piperidin-1-yl)methanone] | 4.56 |  | Microsomal Stability (% remaining) HLM [3]: 0.7 % remaining; Microsomal Stability (% remaining) RLM [1]: 0.0 % remaining; Microsomal Stability (% remaining) MLM [5]: 0.2 % remaining
4 | COc1ccc2[nH]nc(C(=O)N3CCC(c4ccccc4C(F)(F)F)CC3)c2c1 [Compound 17, (5-Methoxy-1H-indazol-3-yl)(4-(2-(trifluoromethyl)phenyl)-piperidin-1-yl)methanone] | 3.01 |  | 
5 | CC(C)n1nc(C(=O)N2CCC(c3ccccc3C(F)(F)F)CC2)c2ccc(F)cc21 [Compound 20, (6-Fluoro-1-isopropyl-1H-indazol-3-yl)(4-(2-(trifluoromethyl)-phenyl)piperidin-1-yl)methanone] |  |  | LLE [4]: 2.03
6 | N#Cc1ccc2nnc(C(=O)N3CCC(c4c(F)cccc4C(F)(F)F)CC3)n2c1 [Compound 64, 3-(4-(2-Fluoro-6-(trifluoromethyl)phenyl)piperidine-1-carbonyl)-[1,2,4]triazolo[4,3-a]pyridine-6-carbonitrile] | 5.89 |  | 
7 | CC/C=C\C/C=C\C/C=C\C/C=C\C/C=C\C/C=C\CCC(=O)O [docosahexaenoic acid, reference compound] |  | weak RBP4 ligands | 
8 | CCCCC/C=C\C/C=C\CCCCCCCC(=O)O [linoleic acid, reference compound] |  | weak RBP4 ligands | 
9 | CCCCCCCC/C=C\CCCCCCCC(=O)O [oleic acid, reference compound] |  | weak RBP4 ligands | 
10 | CCCCCCCCCCCCCCCC(=O)O [palmitic acid, reference compound] |  | weak RBP4 ligands | 
